According to patent US4861897A, “2-Aryloxyalkylaminobenzoxazoles and 2-aryloxyalkylaminobenzothiazoles” (Ortho Pharmaceutical Corporation, priority 1987, dated 1989):

How the values were obtained:
[1] = system: acid output; assay: Gastric secretion, acid output in pylorus ligated rats; type: in vivo, male Charles River Sprague Dawley derived rats; details: Example 50, i.d. or s.c., four hours after pylorus ligation, compared to control; for % Acid Secreted at mpK: @ 10 mpK; for response vs control in vivo at 20 mg/kg: @ 20 mpK; for response vs control in vivo at 40 mg/kg: @ 40 mpK
Experimental: The inhibitory activity of the compounds on acid output was tested using pylorus ligation in a modification of the procedure of Shay, H. et al., Gastroenterology 26, 906 (1954). Basically, male Charles River Sprague Dawley derived rats weighing 150-300 grams were deprived of food but not water for 18-24 hours prior to use. Water was withheld during the experiment, however. The rats were weighed, anesthetized with ether and the pylorus ligated according to the method of Shay et al., supra. Treatment or vehicle control was then administered intraduodenally (i.d.) or subcutaneously (s.c.). Rats were housed two/cage and sacrificed with CO2 four hours after ligation. The stomachs were removed, rinsed, and contents emptied into a graduated centrifuge tube. The tubes were centrifuged, the volume of gastric juice recorded, and any samples obviously contaminated by feces, food or blood were eliminated. A 1 ml aliquot of gastric juice was titrated with 0.1N NaOH to a pH of 7.0-7.4. The volume of gastric juice secreted, the acid concentration, and the product of the volume times the concentration, i.e., the total amount of acid secreted, were measured.

[2] = target: T1, parietal cell H^+ K^+ ATPase (Oryctolagus cuniculus, UniProt P27112); assay: Inhibition of parietal cell H+ K+ ATPase; type: biochemical, New Zealand white rabbits; details: Example 49; for inhibition at 100 µM: @ 10^-4 M, read-out: % Inhibition at Concentration (H+ K+ ATPase); for IC50: given as "50% @ x μM", read-out: % Inhibition at Concentration (H+ K+ ATPase): concentration given for 50% inhibition
T1 construct: determined in fundic mucosa from New Zealand white rabbits which were homogenized; from tissue; host or cells: fundic mucosa of New Zealand white rabbits, homogenized; membrane protein
T1 sequence (P27112 2-1035 limits assumed): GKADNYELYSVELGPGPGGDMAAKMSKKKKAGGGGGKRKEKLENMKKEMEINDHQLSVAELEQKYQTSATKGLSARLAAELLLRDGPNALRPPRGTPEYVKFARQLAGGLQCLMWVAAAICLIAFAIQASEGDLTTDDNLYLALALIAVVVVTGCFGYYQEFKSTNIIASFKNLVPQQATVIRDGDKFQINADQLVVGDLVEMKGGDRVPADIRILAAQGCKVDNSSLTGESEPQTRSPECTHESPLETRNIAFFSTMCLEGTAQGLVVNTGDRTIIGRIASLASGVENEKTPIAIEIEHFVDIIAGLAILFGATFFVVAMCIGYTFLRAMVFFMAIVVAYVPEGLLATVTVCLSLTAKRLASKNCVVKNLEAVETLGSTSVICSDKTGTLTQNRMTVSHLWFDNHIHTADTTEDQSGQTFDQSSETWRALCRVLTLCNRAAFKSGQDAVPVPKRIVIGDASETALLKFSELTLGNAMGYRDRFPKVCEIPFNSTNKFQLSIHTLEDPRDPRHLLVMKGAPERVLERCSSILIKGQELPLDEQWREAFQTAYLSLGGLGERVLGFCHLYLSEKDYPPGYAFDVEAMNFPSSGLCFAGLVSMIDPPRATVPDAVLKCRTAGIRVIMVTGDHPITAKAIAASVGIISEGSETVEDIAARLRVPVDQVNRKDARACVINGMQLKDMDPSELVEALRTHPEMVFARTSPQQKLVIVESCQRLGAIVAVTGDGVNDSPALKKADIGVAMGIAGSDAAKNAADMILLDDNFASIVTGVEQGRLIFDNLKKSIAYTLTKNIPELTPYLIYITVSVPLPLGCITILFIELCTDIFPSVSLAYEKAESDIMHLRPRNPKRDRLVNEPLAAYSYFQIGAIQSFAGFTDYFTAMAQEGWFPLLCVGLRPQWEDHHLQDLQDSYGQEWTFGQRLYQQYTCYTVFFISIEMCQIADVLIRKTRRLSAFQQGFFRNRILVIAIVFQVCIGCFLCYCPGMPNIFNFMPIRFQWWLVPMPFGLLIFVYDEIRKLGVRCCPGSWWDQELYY
T1 sequence (P18597 whole entry partner): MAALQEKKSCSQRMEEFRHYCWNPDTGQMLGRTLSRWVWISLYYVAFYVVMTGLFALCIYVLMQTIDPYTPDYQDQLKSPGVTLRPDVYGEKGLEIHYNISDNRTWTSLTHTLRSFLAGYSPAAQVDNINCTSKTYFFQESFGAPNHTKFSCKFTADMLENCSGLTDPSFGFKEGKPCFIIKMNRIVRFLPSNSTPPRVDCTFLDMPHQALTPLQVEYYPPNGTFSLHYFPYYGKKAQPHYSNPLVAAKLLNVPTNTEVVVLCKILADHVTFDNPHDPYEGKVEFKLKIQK
Experimental: Inhibition of Parietal Cell H^+ K^+ ATPase
The activity was measured in a 1 ml incubation volume containing 50 mM Tris pH 7.4, 2 mM MgCl2, 2 mM Na2 ATP, with or without 20 mM KCl and vehicle control (dimethylsulfoxide) or test compound added in a 0.02 ml volume. Typically, 20-50 μg membrane protein was added and the tubes were preincubated with test compound for 10 minutes at 37° C. Substrate, Na2 ATP, was then added and the tubes were incubated for another 15 minutes at 37° C. The reaction was stopped by the addition of 1 ml 14% trichloroacetic acid and the samples were centrifuged at 2,000 xg for 10 minutes. The amount of inorganic phosphate present in an aliquot of supernatant was determined. H^+ K^+ ATPase activity was determined after correcting for the basal (Mg^++ only) enzyme activity present in the membrane preparation.

[3] = system: cAMP stimulated parietal cells; assay: Isolated parietal cell assay, inhibition of 14C-aminopyrine accumulation, dibutyryl cAMP stimulated; type: cell-based, rabbit; details: Oryctolagus cuniculus, 20 min, Example 48, 37° C., read-out: IC50 vcAMP (inhibition of 14C-AP accumulation in cAMP stimulated parietal cells)
Experimental: (§1) Isolated Parietal Cell Assay
(§2) The isolated parietal cell assay was conducted using the procedures of Batzri, S. et al., Biochemica et Biophysica Acta 508, 328 (1978) and Soll, A. H. Am. J. Physiol. 238, G366 (1980). Basically, parietal cells were isolated from the fundic mucosa of rabbit stomachs by a four-stage collagenase digestion process. The supernatant fractions from the last two stages of this process contain the individual parietal cells. This cell suspension was centrifuged and reconstituted in a modified Hank's buffer to contain 1-2×10^6 cells/ml. […] This accumulation was stimulated by histamine and was blocked by H2 antagonists. The cells were incubated with 0.4-0.5×10^6 cpm ^14 C-AP, with various concentrations of histamine as a stimulant, 1×10^-5 M isobutylmethylxanthine, and the test compound added in a 20 μl volume of buffer or DMSO. The flasks were incubated in a shaking water bath at 37° C. for 20 minutes. Two aliquots were then taken from each flask and cell pellets were collected by centrifugation. The pellets were solubilized with Protosol (New England Nuclear) and radioactivity determined by liquid scintillation spectrometry. Data is presented as the IC50 vhist, the concentration of compound required to inhibit ^14 C-AP accumulation in the histamine stimulated parietal cell by 50%. When dibutyryl cAMP was used to stimulate the cells instead of histamine, a similar inhibition of ^14 C-AP accumulation was measured and the data are presented as the IC50 vcAMP, the concentration required to inhibit ^14 C-AP accumulation in the cAMP stimulated parietal cells by 50%.

[4] = system: histamine stimulated parietal cell; assay: Isolated parietal cell assay, inhibition of 14C-aminopyrine accumulation, histamine stimulated; type: cell-based, rabbit; details: Oryctolagus cuniculus, 20 min, Example 48, 37° C., read-out: IC50 vhist (inhibition of 14C-AP accumulation in histamine stimulated parietal cell)
Experimental: as §1, §2

[5] = Rattus norvegicus, 4 h, read-out: % Acid Secreted at mpK

CCCCN(CCCC)CCCOc1cccc(/C=C/c2nc3ccccc3o2)c1 [Example 1]
% Acid Secreted at mpK [1]: 52% | response vs control in vivo at 5 mg/kg ([1]; Rattus norvegicus, 4 h, @ 5 mpK, read-out: % Acid Secreted at mpK): 44% | response vs control in vivo at 20 mg/kg [1, 5]: 78% | inhibition at 100 µM [2]: 49% | IC50 [3]: 140 nM | IC50 [4]: 270 nM

CN1CCN(CCCOc2cccc(/C=C/c3nc4ccccc4o3)c2)CC1 [Example 2, (E)-2-[2-[3-[3-(4-Methylpiperazino)propoxy]phenyl]ethenyl]benzoxazole]
response vs control in vivo at 20 mg/kg [1, 5]: 9% | IC50 [2]: 94 µM | IC50 [3]: 410 nM | IC50 [4]: 1200 nM

CCCN(CCC)CCCOc1cccc(/C=C/c2nc3ccccc3o2)c1 [Example 3, (E)-2-[2-(3-Dipropylaminopropoxyphenyl)ethyenyl]benzoxazole]
response vs control in vivo at 20 mg/kg [1, 5]: 49% | IC50 [2]: 29 µM | IC50 [3]: 240 nM | IC50 [4]: 200 nM

C(=C\c1nc2ccccc2o1)/c1cccc(OCCCn2ccnc2)c1 [Example 4]
response vs control in vivo at 20 mg/kg [1, 5]: 38% | IC50 [2]: 10 µM | IC50 [3]: 340 nM | IC50 [4]: 210 nM

CCCN(CCC)CCCCOc1cccc(/C=C/c2nc3ccccc3o2)c1 [Example 5]
% Acid Secreted at mpK [1]: 25% | response vs control in vivo at 20 mg/kg [1, 5]: 74% | IC50 [2]: 14 µM | IC50 [3]: 310 nM | IC50 [4]: 120 nM

C(=C\c1nc2ccccc2o1)/c1cccc(OCCCCn2ccnc2)c1 [Example 6]
response vs control in vivo at 20 mg/kg [1, 5]: 45% | IC50 [2]: 13 µM | IC50 [3]: 230 nM | IC50 [4]: 280 nM

COc1ccc2nc(/C=C/c3cccc(OCCCCn4ccnc4)c3)oc2c1 [Example 7, (E)-2-[2-(3-(1H-Imidazol-1-yl)butoxyphenyl)ethenyl]-6-methoxybenzoxazole]
IC50 [2]: 74 µM | IC50 [3]: 180 nM | IC50 [4]: 120 nM

CCCCN(CCCC)CCCOc1ccc(/C=C/c2nc3ccccc3o2)cc1 [Example 8, (E)-2-[2-(4-Dibutylaminopropoxyphenyl)ethenyl]benzoxazole]
% Acid Secreted at mpK [1]: 44% | response vs control in vivo at 40 mg/kg [1, 5]: 96% | inhibition at 100 µM [2]: 17% | IC50 [3]: 150 nM | IC50 [4]: 150 nM

CCCN(CCC)CCCOc1ccc(/C=C/c2nc3ccccc3o2)cc1 [Example 9, (E)-2-[2-(4-Dipropylaminopropoxyphenyl)ethenyl]benzoxazole]
% Acid Secreted at mpK [1]: 29% | response vs control in vivo at 20 mg/kg [1, 5]: 77% | response vs control in vivo at 40 mg/kg [1, 5]: 97% | IC50 [2]: 25 µM | IC50 [3]: 350 nM | IC50 [4]: 220 nM

C(=C\c1nc2ccccc2o1)/c1ccc(OCCCn2ccnc2)cc1 [Example 10, (E)-2-[2-(4-(1H-Imidazol-1-yl)propoxyphenyl)ethenyl]benzoxazole]
response vs control in vivo at 20 mg/kg [1, 5]: 26% | IC50 [2]: 64 µM | IC50 [3]: 250 nM | IC50 [4]: 290 nM

CCN(CC)CCCOc1ccc(/C=C/c2nc3ccccc3o2)cc1 [Example 11, (E)-2-[2-(4-Diethylaminopropoxyphenyl)ethenyl]benzoxazole]
response vs control in vivo at 40 mg/kg [1, 5]: 54% | inhibition at 100 µM [2]: 20% | IC50 [3]: 980 nM | IC50 [4]: 320 nM

C(=C\c1nc2ccccc2o1)/c1ccc(OCCCN2CCCCC2)cc1 [Example 12, (E)-2-[2-[4-(3-Piperidinopropoxy)phenyl]ethenyl]benzoxazole]
response vs control in vivo at 40 mg/kg [1, 5]: 88% | IC50 [2]: 27 µM | IC50 [3]: 150 nM | IC50 [4]: 260 nM

COc1ccccc1N1CCN(CCCOc2ccc(/C=C/c3nc4ccccc4o3)cc2)CC1 [Example 14]
response vs control in vivo at 20 mg/kg [1, 5]: 8% | inhibition at 100 µM [2]: 43% | IC50 [3]: 800 nM | IC50 [4]: 600 nM

CCCCN(CCCC)CCCOc1ccc(/C=C/c2nc3cc(C)ccc3o2)cc1 [Example 15, (E)-2-[2-(4-Dibutylaminopropoxyphenyl)ethenyl]-5-methylbenzoxazole]
response vs control in vivo at 40 mg/kg [1, 5]: 88% | IC50 [2]: 27 µM | IC50 [3]: 340 nM | IC50 [4]: 260 nM

CCCCN(CCCC)CCCOc1ccc(/C=C/c2nc3ccc(OC)cc3o2)cc1 [Example 16, (E)-2-[2-(4-Dibutylaminopropoxyphenyl)ethenyl]-6-methoxybenzoxazole]
response vs control in vivo at 40 mg/kg [1, 5]: 64% | IC50 [2]: 26 µM | IC50 [3]: 50 nM | IC50 [4]: 80 nM

CCCCN(CCCC)CCOc1ccc(/C=C/c2nc3ccccc3o2)cc1 [Example 17, (E)-2-[2-(4-Dibutylaminoethoxyphenyl)ethenyl]benzoxazole]
response vs control in vivo at 20 mg/kg [1, 5]: 43% | inhibition at 100 µM [2]: 43% | IC50 [3]: 540 nM | IC50 [4]: 260 nM

CCCCN(CCCC)CCCCOc1ccc(/C=C/c2nc3ccccc3o2)cc1 [Example 18]
% Acid Secreted at mpK [1]: 14% | IC50 [2]: 20 µM | IC50 [3]: < 10000 nM | IC50 [4]: 180 nM

C(=C\c1nc2ccccc2o1)/c1ccc(OCCCCN2CCCCC2)cc1 [Example 19]
response vs control in vivo at 20 mg/kg [1, 5]: 42% | IC50 [2]: 40 µM | IC50 [3]: 330 nM | IC50 [4]: 170 nM

CCCN(CCC)CCCCOc1ccc(/C=C/c2nc3ccccc3o2)cc1 [Example 20]
% Acid Secreted at mpK [1]: 59% | response vs control in vivo at 20 mg/kg [1, 5]: 90% | IC50 [2]: 21 µM | IC50 [3]: 110 nM | IC50 [4]: 390 nM

C(=C\c1nc2ccccc2o1)/c1ccc(OCCCCn2ccnc2)cc1 [Example 21]
response vs control in vivo at 20 mg/kg [1, 5]: 14% | IC50 [2]: 30 µM | IC50 [3]: 330 nM | IC50 [4]: 270 nM

CCN(CC)CCCCOc1ccc(/C=C/c2nc3ccccc3o2)cc1 [Example 22]
response vs control in vivo at 20 mg/kg [1, 5]: 31% | IC50 [2]: 74 µM | IC50 [3]: 120 nM | IC50 [4]: 80 nM

CCCN(CCC)CCCOc1ccc(/C=C/c2nc3ccccc3s2)cc1 [Example 29, (E)-2-[2-(4-Dipropylaminopropoxyphenyl)ethenyl]benzothiazole]
response vs control in vivo at 20 mg/kg [1, 5]: 30% | IC50 [3]: 210 nM | IC50 [4]: 260 nM

CCN(CC)CCCOc1ccc(/C=C/c2nc3ccccc3s2)cc1 [Example 30, (E)-2-[2-(4-Diethylaminopropoxyphenyl)ethenyl]benzothiazole]
response vs control in vivo at 40 mg/kg [1, 5]: 71% | IC50 [3]: 150 nM | IC50 [4]: 370 nM

C(=C\c1nc2ccccc2s1)/c1ccc(OCCCn2ccnc2)cc1 [Example 32, (E)-2-[2-(4-(1H-Imidazol-1-yl)propoxyphenyl)ethenyl]benzothiazole]
response vs control in vivo at 20 mg/kg [1, 5]: 22% | IC50 [3]: 340 nM | IC50 [4]: 130 nM

C(=C\c1nc2ccccc2s1)/c1ccc(OCCCCn2ccnc2)cc1 [Example 40, (E)-2-[2-(4-(1H-Imidazol-1-yl)butoxyphenyl)ethenyl]benzothiazole]
response vs control in vivo at 40 mg/kg [1, 5]: 17% | IC50 [3]: 260 nM | IC50 [4]: 200 nM

CCCCN(CCCC)CCCOc1ccc(-c2nc3ccccc3s2)cc1 [Example 43, 2-(4-Dibutylaminopropoxyphenyl)benzothiazole]
IC50 [2]: 18 µM | IC50 [3]: 2600 nM | IC50 [4]: 250 nM
